Laboratory results taken from patent US12478617B2, “Lipidated peptide inhibitors of interleukin-23 receptor” (JANSSEN BIOTECH, INC., priority 2021, dated 2025).
Starred links: 1 amine or outer side, 2 acyl side, 3 side chain; linkers in the order of their positions; H or OH if unused. Positions of bridges follow the written chain, without caps; N, C: chain ends. Non-standard residues stand in square brackets, D forms with d. Residues, ends and D or L forms follow the SMILES beside them. Groups on a side chain read outwards from the residue. *: point of attachment. CH3O(CH2CH2O)11CH2CH2CO = COCCOCCOCCOCCOCCOCCOCCOCCOCCOCCOCCOCCC(=O)*; PEG12 = NCCOCCOCCOCCOCCOCCOCCOCCOCCOCCOCCOCCOCCC(=O)O; Trp(7-Me) = Cc1cccc2c(C[C@H](N)C(=O)O)c[nH]c12; C18 diacid = O=C(O)CCCCCCCCCCCCCCCCC(=O)*; γGlu = O=C(O)[C@H](CCC(=O)[*:2])N[*:1]; 2Nal = N[C@@H](Cc1ccc2ccccc2c1)C(=O)O; Palmitoyl = CCCCCCCCCCCCCCCC(=O)*; 3Pal = N[C@@H](Cc1cccnc1)C(=O)O; αMeL = CC(C)C[C@](C)(N)C(=O)O; PEG4 = NCCOCCOCCOCCOCCC(=O)O; Pen = CC(C)(S)[C@H](N)C(=O)O; αMeK = C[C@](N)(CCCCN)C(=O)O; X3 = COCCOCCOCCOCCC(=O)*; Thp = NC1(C(=O)O)CCOCC1; Sar = CNCC(=O)O

Target: IL-23R-expressing DB cells (Homo sapiens, UniProt Q5VWK5)
Sequence (Q5VWK5 24-629 limits assumed): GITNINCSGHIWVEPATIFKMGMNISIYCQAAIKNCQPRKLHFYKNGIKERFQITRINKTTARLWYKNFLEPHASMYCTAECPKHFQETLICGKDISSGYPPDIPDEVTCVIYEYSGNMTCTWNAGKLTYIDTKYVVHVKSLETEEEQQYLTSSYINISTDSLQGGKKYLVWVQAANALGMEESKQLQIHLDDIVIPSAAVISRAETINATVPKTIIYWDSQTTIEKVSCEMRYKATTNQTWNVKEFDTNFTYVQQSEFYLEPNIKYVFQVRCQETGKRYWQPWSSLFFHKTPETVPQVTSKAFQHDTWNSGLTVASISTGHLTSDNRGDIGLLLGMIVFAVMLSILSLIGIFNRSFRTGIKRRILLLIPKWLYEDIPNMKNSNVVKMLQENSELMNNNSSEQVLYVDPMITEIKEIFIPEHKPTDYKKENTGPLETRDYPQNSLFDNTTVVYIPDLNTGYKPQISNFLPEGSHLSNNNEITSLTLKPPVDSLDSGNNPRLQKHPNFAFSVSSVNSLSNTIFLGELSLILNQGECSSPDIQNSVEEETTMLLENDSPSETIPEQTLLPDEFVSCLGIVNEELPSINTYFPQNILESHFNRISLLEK
Test: DB Cells IL23R pSTAT3 Cell Assay
Type: cell-based
Conditions: pSTAT3 (HTRF) in IL-23R-expressing DB cells, 0.5 nM IL-23, 30 minutes; Table 6 'IL-23 Cell Data'
Procedure: IL-23 is believed to play a central role in supporting and maintaining Th17 differentiation in vivo. This process is thought to be mediated primarily through the Signal Transducer and Activator of Transcription 3 (STAT3), with phosphorylation of STAT3 (to yield pSTAT3) leading to upregulation of RORC and pro-inflammatory IL-17. […] DB cells (ATCC #CRL-2289), cultured in RPMI-1640 medium (Thermo Scientific #11875093) supplemented with 10% FBS, were added at 5 X 10E5 cells/well and incubated for 30 minutes at 37° C. in a 5% CO2 humidified incubator. Changes in phospho-STAT3 levels in the cell lysates were detected using the Cisbio HTRF pSTAT3 (Tyr705) Cellular Assay Kit (Cisbio #62AT3PEH), according to manufacturer's Two Plate Assay protocol. Where not shown or it is marked as “0”, data was not yet determined.

IC50 [nM] | Compound
0.631 | COCCOCCOCCOCCOCCOCCOCCOCCOCCOCCOCCOCCC(=O)N[C@@H]1C(=O)N[C@@H](CC(N)=O)C(=O)N[C@@H]([C@@H](C)O)C(=O)N[C@@H](Cc2c[nH]c3c(C)cccc23)C(=O)N[C@@H](CCCCNC(C)=O)C(=O)N[C@H](C(=O)N[C@@H](Cc2ccccc2)C(=O)N[C@@H](Cc2ccc3ccccc3c2)C(=O)N[C@@](C)(CC(C)C)C(=O)N[C@@H](CC(C)C)C(=O)N[C@@H](CC(N)=O)C(=O)N[C@@H](Cc2cccnc2)C(=O)N(C)CC(N)=O)C(C)(C)SSC1(C)C [Example 207, [PEG12_OMe]-[Pen]-N-T-[Trp(7-Me)]-[Lys(Ac)]-[Pen]-F-[2Nal]-[aMeLeu]-L-N-[3Pal]-[Sarc]-NH2] ({CH3O(CH2CH2O)11CH2CH2CO}-[Pen]NT[Trp(7-Me)]K(Ac)[Pen]F[2Nal][αMeL]LN[3Pal][Sar]-NH2; disulfide 1-6)
0.07 | COCCOCCOCCOCCOCCOCCOCCOCCOCCOCCOCCOCCC(=O)N[C@@H]1C(=O)N[C@@H](CC(C)C)C(=O)N[C@@H]([C@@H](C)O)C(=O)N[C@@H](Cc2c[nH]c3c(C)cccc23)C(=O)N[C@@H](CCCCNC(C)=O)C(=O)N[C@H](C(=O)N[C@@H](Cc2ccccc2)C(=O)N[C@@H](Cc2ccc3ccccc3c2)C(=O)N[C@@](C)(CC(C)C)C(=O)N[C@@H](CC(C)C)C(=O)N[C@@H](CC(N)=O)C(=O)N[C@@H](Cc2cccnc2)C(=O)N(C)CC(N)=O)C(C)(C)SSC1(C)C [Example 209, [PEG12_OMe]-[Pen]-L-T-[Trp(7-Me)]-[Lys(Ac)]-[Pen]-F-[2Nal]-[aMeLeu]-L-N-[3Pal]-[Sarc]-NH2] ({CH3O(CH2CH2O)11CH2CH2CO}-[Pen]LT[Trp(7-Me)]K(Ac)[Pen]F[2Nal][αMeL]LN[3Pal][Sar]-NH2; disulfide 1-6)
0.062 | COCCOCCOCCOCCC(=O)N[C@@H]1C(=O)N[C@@H](CC(N)=O)C(=O)N[C@@H]([C@@H](C)O)C(=O)N[C@@H](Cc2c[nH]c3c(C)cccc23)C(=O)N[C@@H](CCCCNC(C)=O)C(=O)N[C@H](C(=O)N[C@@H](Cc2ccccc2)C(=O)N[C@@H](Cc2ccc3ccccc3c2)C(=O)N[C@@](C)(CC(C)C)C(=O)N[C@@H](CC(C)C)C(=O)N[C@@H](CC(N)=O)C(=O)N[C@@H](Cc2cccnc2)C(=O)N(C)CC(N)=O)C(C)(C)SSC1(C)C [Example 211, [PEG4_OMe]-[Pen]-N-T-[Trp(7-Me)]-[Lys(Ac)]-[Pen]-F-[2Nal]-[aMeLeu]-L-N-[3Pal]-[Sarc]-NH2] (X3-[Pen]NT[Trp(7-Me)]K(Ac)[Pen]F[2Nal][αMeL]LN[3Pal][Sar]-NH2; disulfide 1-6)
0.13 | COCCOCCOCCOCCC(=O)N[C@@H]1C(=O)N[C@@H](CC(C)C)C(=O)N[C@@H]([C@@H](C)O)C(=O)N[C@@H](Cc2c[nH]c3c(C)cccc23)C(=O)N[C@@H](CCCCNC(C)=O)C(=O)N[C@H](C(=O)N[C@@H](Cc2ccccc2)C(=O)N[C@@H](Cc2ccc3ccccc3c2)C(=O)N[C@@](C)(CC(C)C)C(=O)N[C@@H](CC(C)C)C(=O)N[C@@H](CC(N)=O)C(=O)N[C@@H](Cc2cccnc2)C(=O)N(C)CC(N)=O)C(C)(C)SSC1(C)C [Example 213, [PEG4_OMe]-[Pen]-L-T-[Trp(7-Me)]-[Lys(Ac)]-[Pen]-F-[2Nal]-[aMeLeu]-L-N-[3Pal]-[Sarc]-NH2] (X3-[Pen]LT[Trp(7-Me)]K(Ac)[Pen]F[2Nal][αMeL]LN[3Pal][Sar]-NH2; disulfide 1-6)
0.811 | CCCCCCCCCCCCCCCC(=O)N[C@@H](CCC(=O)NCCOCCOCCOCCOCCOCCOCCOCCOCCOCCOCCOCCOCCC(=O)NCCCC[C@](C)(NC(=O)[C@H](Cc1ccc2ccccc2c1)NC(=O)[C@H](Cc1ccc(OC)cc1)NC(=O)[C@H]1NC(=O)[C@H](CCCCNC(C)=O)NC(=O)[C@H](Cc2c[nH]c3c(C)cccc23)NC(=O)[C@H]([C@@H](C)O)NC(=O)[C@H](CC(N)=O)NC(=O)[C@@H](NC(C)=O)C(C)(C)SSC1(C)C)C(=O)N[C@@H](C)C(=O)N[C@@H](C)C(=O)N[C@@H](Cc1cccnc1)C(=O)N(C)CC(N)=O)C(=O)O [Example 225, Ac-[Pen]-N-T-[Trp(7-Me)]-[Lys(Ac)]-[Pen]-[Phe(4-OMe)]-[2Nal]-[aMeLys(PEG12_IsoGlu_Palm)]-A-A-[3Pal]-[Sarc]-NH2]
0.633 | CCCCCCCCCCCCCCCC(=O)N[C@@H](CCC(=O)NCCOCCOCCOCCOCCOCCOCCOCCOCCOCCOCCOCCOCCC(=O)NCCCC[C@](C)(NC(=O)[C@H](Cc1ccc2ccccc2c1)NC(=O)[C@H](Cc1ccc(OC)cc1)NC(=O)[C@H]1NC(=O)[C@H](CCCCNC(C)=O)NC(=O)[C@H](Cc2c[nH]c3c(C)cccc23)NC(=O)[C@H]([C@@H](C)O)NC(=O)[C@H](C)NC(=O)[C@@H](NC(C)=O)C(C)(C)SSC1(C)C)C(=O)N[C@@H](CCCCNC(C)=O)C(=O)N[C@@H](CC(N)=O)C(=O)N[C@@H](Cc1cccnc1)C(=O)N(C)CC(N)=O)C(=O)O [Example 226, Ac-[Pen]-A-T-[Trp(7-Me)]-[Lys(Ac)]-[Pen]-[Phe(4-OMe)]-[2Nal]-[aMeLys(PEG12_IsoGlu_Palm)]-[Lys(Ac)]-N-[3Pal]-[Sarc]-NH2] (Ac-[Pen]AT[Trp(7-Me)]K(Ac)[Pen]Y(Me)[2Nal][αMeK]([PEG12-γGlu-Palmitoyl])K(Ac)N[3Pal][Sar]-NH2; disulfide 1-6)
4.3 | CCCCCCCCCCCCCCCC(=O)N[C@@H](CCC(=O)NCCOCCOCCOCCOCCOCCOCCOCCOCCOCCOCCOCCOCCC(=O)NCCCC[C@H](NC(=O)C1(NC(=O)[C@H](Cc2ccc3ccccc3c2)NC(=O)[C@H](Cc2ccc(OC)cc2)NC(=O)[C@H]2NC(=O)[C@H](CCCCNC(C)=O)NC(=O)[C@H](Cc3c[nH]c4c(C)cccc34)NC(=O)[C@H]([C@@H](C)O)NC(=O)[C@H](CC(C)C)NC(=O)[C@@H](NC(C)=O)C(C)(C)SSC2(C)C)CCOCC1)C(=O)N[C@@H](CC(C)C)C(=O)N[C@@H](Cc1cccnc1)C(=O)N(C)CC(N)=O)C(=O)O [Example 243, Ac-[Pen]-L-T-[Trp(7-Me)]-[Lys(Ac)]-[Pen]-[Phe(4-OMe)]-[2Nal]-[THP]-[Lys(PEG12_IsoGlu_Palm)]-L-[3Pal]-[Sarc]-NH2] (Ac-[Pen]LT[Trp(7-Me)]K(Ac)[Pen]Y(Me)[2Nal][Thp]K([PEG12-γGlu-Palmitoyl])L[3Pal][Sar]-NH2; disulfide 1-6)
> 10 | COc1ccc(C[C@H](NC(=O)[C@H]2NC(=O)[C@H](CCCCNC(=O)CCOCCOCCOCCOCCNC(=O)CCCCCCCCCCCCCCCCC(=O)O)NC(=O)[C@H](Cc3c[nH]c4c(C)cccc34)NC(=O)[C@H]([C@@H](C)O)NC(=O)[C@H](CC(C)C)NC(=O)[C@@H](NC(C)=O)C(C)(C)SSC2(C)C)C(=O)N[C@@H](Cc2ccc3ccccc3c2)C(=O)NC2(C(=O)N[C@@H](CC(C)C)C(=O)N[C@@H](CC(C)C)C(=O)N[C@@H](Cc3cccnc3)C(=O)N(C)CC(N)=O)CCOCC2)cc1 [Example 262, Ac-[Pen]-L-T-[Trp(7-Me)]-[Lys(PEG4_C18_Diacid)]-[Pen]-[Phe(4-OMe)]-[2Nal]-[THP]-L-L-[3Pal]-[Sarc]-NH2] (Ac-[Pen]LT[Trp(7-Me)]K([PEG4-C18 diacid])[Pen]Y(Me)[2Nal][Thp]LL[3Pal][Sar]-NH2; disulfide 1-6)
> 10 | COc1ccc(C[C@H](NC(=O)[C@H]2NC(=O)[C@H](CCCCNC(=O)CCOCCOCCOCCOCCOCCOCCOCCOCCOCCOCCOCCOCCNC(=O)CC[C@H](NC(=O)CCCCCCCCCCCCCCCCC(=O)O)C(=O)O)NC(=O)[C@H](Cc3c[nH]c4c(C)cccc34)NC(=O)[C@H]([C@@H](C)O)NC(=O)[C@H](CC(C)C)NC(=O)[C@@H](NC(C)=O)C(C)(C)SSC2(C)C)C(=O)N[C@@H](Cc2ccc3ccccc3c2)C(=O)NC2(C(=O)N[C@@H](CC(C)C)C(=O)N[C@@H](CC(C)C)C(=O)N[C@@H](Cc3cccnc3)C(=O)N(C)CC(N)=O)CCOCC2)cc1 [Example 268, Ac-[Pen]-L-T-[Trp(7-Me)]-[Lys(PEG12_IsoGlu_C18_Diacid)]-[Pen]-[Phe(4-OMe)]-[2Nal]-[THP]-L-L-[3Pal]-[Sarc]-NH2] (Ac-[Pen]LT[Trp(7-Me)]K([PEG12-γGlu-C18 diacid])[Pen]Y(Me)[2Nal][Thp]LL[3Pal][Sar]-NH2; disulfide 1-6)
> 10 | COc1ccc(C[C@H](NC(=O)[C@H]2NC(=O)[C@H](CCCCNC(=O)CC[C@H](NC(=O)CCCCCCCCCCCCCCCCC(=O)O)C(=O)O)NC(=O)[C@H](Cc3c[nH]c4c(C)cccc34)NC(=O)[C@H]([C@@H](C)O)NC(=O)[C@H](CC(C)C)NC(=O)[C@@H](NC(C)=O)C(C)(C)SSC2(C)C)C(=O)N[C@@H](Cc2ccc3ccccc3c2)C(=O)NC2(C(=O)N[C@@H](CCCCNC(C)=O)C(=O)N[C@@H](CC(C)C)C(=O)N[C@@H](Cc3cccnc3)C(=O)N(C)CC(N)=O)CCOCC2)cc1 [Example 271, Ac-[Pen]-L-T-[Trp(7-Me)]-[Lys(IsoGlu_C18_Diacid)]-[Pen]-[Phe(4-OMe)]-[2Nal]-[THP]-[Lys(Ac)]-L-[3Pal]-[Sarc]-NH2] (Ac-[Pen]LT[Trp(7-Me)]K([γGlu-C18 diacid])[Pen]Y(Me)[2Nal][Thp]K(Ac)L[3Pal][Sar]-NH2; disulfide 1-6)
